Assay results reported in patent US10150771B2, “Triazolopyrazinones as PDE1 inhibitors” (H. Lundbeck A/S, priority 2014, dated 2018).

Columns and labels:
Format in all cases: biochemical
PDE1C = PDE1C (Homo sapiens, UniProt Q14123); assay: PDE1 inhibition assay (SPA), PDE1C; settings: concentration required to reach 50% inhibition of the enzyme; 15 nM tritium labelled cAMP; read-out: PDE1C inhibition (nM or %): IC50
Description: (§1) PDE1 Inhibition Assay PDE1A, PDE1B and PDE1C assays were performed as follows: the assays were performed in 60 μL samples containing a fixed amount of the PDE1 enzym1 (sufficient to convert 20-25% of the cyclic nucleotide substrate), a buffer (50 mM HEPES pH 7.6; 10 mM MgCl2; 0.02% Tween20), 0.1 mg/ml BSA, 15 nM tritium labelled cAMP and varying amounts of inhibitors. Reactions were initiated by addition of the cyclic nucleotide substrate, and reactions were allowed to proceed for 1 h at room temperature before being terminated through mixing with 20 μL (0.2 mg) yttrium silicate SPA beads (PerkinElmer). The beads were allowed to settle for 1 h in the dark before the plates were counted in a Wallac 1450 Microbeta counter. The measured signals were converted to activity relative to an uninhibited control (100%) and IC50 values were calculated using XIFit (model 205, IDBS).

PDE1A = PDE1A (Homo sapiens, UniProt P54750); assay: PDE1 inhibition assay (SPA), PDE1A; settings: for IC50: concentration required to reach 50% inhibition of the enzyme, 15 nM tritium labelled cAMP, read-out: PDE1A inhibition (nM or %): IC50; for inhibition at 10 µM: 1 h, % inhibition of the enzyme at a concentration of 10 micro molar of the compound, read-out: PDE1A inhibition (nM or %): % inhib
Description: as §1

PDE1B = PDE1B (Homo sapiens, UniProt Q01064); assay: PDE1 inhibition assay (SPA), PDE1B; settings: for IC50: concentration required to reach 50% inhibition of the enzyme, 15 nM tritium labelled cAMP, read-out: PDE1B inhibition (nM or %): IC50
Description: as §1

PDE1C, sequence (Q14123 whole entry): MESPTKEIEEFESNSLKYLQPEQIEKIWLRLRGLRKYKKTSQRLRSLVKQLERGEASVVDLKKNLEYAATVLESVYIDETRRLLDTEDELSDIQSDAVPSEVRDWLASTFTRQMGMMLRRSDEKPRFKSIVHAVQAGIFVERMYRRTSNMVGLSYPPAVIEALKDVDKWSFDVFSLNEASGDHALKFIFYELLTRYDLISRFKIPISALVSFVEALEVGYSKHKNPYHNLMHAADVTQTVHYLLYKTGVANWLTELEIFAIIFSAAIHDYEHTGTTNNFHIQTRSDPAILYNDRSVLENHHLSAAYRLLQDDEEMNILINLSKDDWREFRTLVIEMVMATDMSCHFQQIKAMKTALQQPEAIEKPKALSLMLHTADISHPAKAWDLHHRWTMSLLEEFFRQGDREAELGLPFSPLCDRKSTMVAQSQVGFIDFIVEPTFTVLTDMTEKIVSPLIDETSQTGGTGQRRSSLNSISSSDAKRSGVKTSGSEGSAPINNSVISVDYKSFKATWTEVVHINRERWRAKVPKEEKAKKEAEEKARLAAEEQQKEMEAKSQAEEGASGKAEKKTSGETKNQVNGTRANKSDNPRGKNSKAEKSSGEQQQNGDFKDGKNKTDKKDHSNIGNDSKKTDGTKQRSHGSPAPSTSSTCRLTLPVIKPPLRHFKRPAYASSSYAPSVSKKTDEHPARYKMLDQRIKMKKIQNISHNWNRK
PDE1A, sequence (P54750 whole entry): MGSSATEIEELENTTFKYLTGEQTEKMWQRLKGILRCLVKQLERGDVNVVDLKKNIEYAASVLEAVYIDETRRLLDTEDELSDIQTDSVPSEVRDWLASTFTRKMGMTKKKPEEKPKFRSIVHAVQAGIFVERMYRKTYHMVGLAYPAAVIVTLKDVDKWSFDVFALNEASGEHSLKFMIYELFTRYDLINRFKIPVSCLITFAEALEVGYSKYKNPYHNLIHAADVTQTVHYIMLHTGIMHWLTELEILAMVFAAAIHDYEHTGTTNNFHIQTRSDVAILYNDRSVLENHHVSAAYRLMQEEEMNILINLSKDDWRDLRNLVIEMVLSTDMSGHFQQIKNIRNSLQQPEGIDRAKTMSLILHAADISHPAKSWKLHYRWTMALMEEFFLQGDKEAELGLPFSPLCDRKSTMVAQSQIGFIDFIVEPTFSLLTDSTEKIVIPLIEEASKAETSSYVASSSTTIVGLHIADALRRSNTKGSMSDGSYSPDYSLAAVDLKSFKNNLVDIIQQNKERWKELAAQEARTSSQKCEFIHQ
PDE1B, sequence (Q01064 whole entry): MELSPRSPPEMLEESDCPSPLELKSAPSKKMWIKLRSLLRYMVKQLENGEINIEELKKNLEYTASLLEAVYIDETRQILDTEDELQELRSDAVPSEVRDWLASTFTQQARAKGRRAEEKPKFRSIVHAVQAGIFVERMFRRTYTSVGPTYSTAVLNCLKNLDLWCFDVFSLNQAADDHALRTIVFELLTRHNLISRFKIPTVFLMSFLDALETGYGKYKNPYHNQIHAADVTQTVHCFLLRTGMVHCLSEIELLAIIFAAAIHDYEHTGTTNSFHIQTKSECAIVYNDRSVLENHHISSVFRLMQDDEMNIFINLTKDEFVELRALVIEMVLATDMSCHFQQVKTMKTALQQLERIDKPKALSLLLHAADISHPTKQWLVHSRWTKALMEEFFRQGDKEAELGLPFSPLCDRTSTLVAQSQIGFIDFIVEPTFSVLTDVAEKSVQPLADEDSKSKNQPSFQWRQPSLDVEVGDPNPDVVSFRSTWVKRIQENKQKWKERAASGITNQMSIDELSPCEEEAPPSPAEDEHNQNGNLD

SMILES	IC50 (PDE1C)	IC50 (PDE1A)	IC50 (PDE1B)	inhibition at 10 µM (PDE1A)	inhibition at 10 µM (PDE1B; 1 h, % inhibition of the enzyme at a concentration of 10 micro molar of the compound, read-out: PDE1B inhibition (nM or %): % inhib)
O=c1c2nnc(C3CCOCC3)n2cc(Cc2ccccc2)n1Cc1ccc(F)cc1 [6-benzyl-7-(4-fluorobenzyl)-3-(tetrahydro-2H-pyran-4-yl)-[1,2,4]triazolo[4,3-a]pyrazin-8(7H)-one]	6 nM	15 nM	12 nM	–	–
O=c1c2nnc(C3CCOCC3)n2cc(Cc2ccccc2)n1CC1CCCCCC1 [6-benzyl-7-(cycloheptylmethyl)-3-(tetrahydro-2H-pyran-4-yl)-[1,2,4]triazolo[4,3-a]pyrazin-8(7H)-one]	2 nM	1 nM	4 nM	–	–
O=c1c2nnc(C3CCOCC3)n2cc(Cc2ccccc2)n1CC1CCCCC1 [6-benzyl-7-(cyclohexylmethyl)-3-(tetrahydro-2H-pyran-4-yl)-[1,2,4]triazolo[4,3-a]pyrazin-8(7H)-one]	4 nM	11 nM	11 nM	–	–
O=c1c2nnc(C3CCOCC3)n2cc(Cc2ccccc2)n1CC1CCCC1 [6-benzyl-7-(cyclopentylmethyl)-3-(tetrahydro-2H-pyran-4-yl)-[1,2,4]triazolo[4,3-a]pyrazin-8(7H)-one]	5 nM	65 nM	46 nM	–	–
Cn1c(Cc2ccccc2)cn2c(C3CCOCC3)nnc2c1=O [6-benzyl-7-methyl-3-(tetrahydro-2H-pyran-4-yl)-[1,2,4]triazolo[4,3-a]pyrazin-8(7H)-one]	2800 nM	2000 nM	1600 nM	–	–
O=c1c2nnc(C3CCOCC3)n2cc(Br)n1Cc1cccc(F)c1 [6-bromo-7-(3-fluorobenzyl)-3-(tetrahydro-2H-pyran-4-yl)-[1,2,4]triazolo[4,3-a]pyrazin-8(7H)-one]	24 nM	114 nM	150 nM	–	–
CCCc1nnc2c(=O)n(Cc3cccc(F)c3)c(Br)cn12 [6-bromo-7-(3-fluorobenzyl)-3-propyl-[1,2,4]triazolo[4,3-a]pyrazin-8(7H)-one]	20 nM	63 nM	99 nM	–	–
O=c1c2nnc(C3CCOCC3)n2cc(Br)n1CC1CCCCCC1 [6-bromo-7-(cycloheptylmethyl)-3-(tetrahydro-2H-pyran-4-yl)-[1,2,4]triazolo[4,3-a]pyrazin-8(7H)-one]	3 nM	13 nM	4 nM	–	–
O=c1c2nnc(C3CCOCC3)n2cc(Br)n1CC1CCCCC1 [6-bromo-7-(cyclohexylmethyl)-3-(tetrahydro-2H-pyran-4-yl)-[1,2,4]triazolo[4,3-a]pyrazin-8(7H)-one]	3 nM	12 nM	17 nM	–	–
O=c1c2nnc(C3CCOCC3)n2cc(Br)n1CC1CCCC1 [6-bromo-7-(cyclopentylmethyl)-3-(tetrahydro-2H-pyran-4-yl)-[1,2,4]triazolo[4,3-a]pyrazin-8(7H)-one]	6 nM	164 nM	140 nM	–	–
CCCc1nnc2c(=O)n(Cc3cccc(F)c3)c(CC)cn12 [6-ethyl-7-(3-fluorobenzyl)-3-propyl-[1,2,4]triazolo[4,3-a]pyrazin-8(7H)-one]	50 nM	117 nM	180 nM	–	–
CCCc1nnc2c(=O)n(Cc3ccccc3Cl)ccn12 [7-(2-Chlorobenzyl)-3-propyl-[1,2,4]triazolo[4,3-a]pyrazin-8(7H)-one]	430 nM	2000 nM	2500 nM	–	–
CCCc1nnc2c(=O)n(Cc3ccccc3F)ccn12 [7-(2-Fluorobenzyl)-3-propyl-[1,2,4]triazolo[4,3-a]pyrazin-8(7H)-one]	130 nM	860 nM	1000 nM	–	–
CCCc1nnc2c(=O)n(Cc3ccccc3C)ccn12 [7-(2-Methylbenzyl)-3-propyl-[1,2,4]triazolo[4,3-a]pyrazin-8(7H)-one]	2400 nM	–	–	53%	42%
CCCc1nnc2c(=O)n(Cc3cccc(Cl)c3)ccn12 [7-(3-Chlorobenzyl)-3-propyl-[1,2,4]triazolo[4,3-a]pyrazin-8(7H)-one]	160 nM	1400 nM	1300 nM	–	–
O=c1c2nnc(CC(F)(F)F)n2ccn1Cc1cccc(F)c1 [7-(3-Fluorobenzyl)-3-(2,2,2-trifluoroethyl)-[1,2,4]triazolo[4,3-a]pyrazin-8(7H)-one]	380 nM	2000 nM	1400 nM	–	–
O=c1c2nnc(CCF)n2ccn1Cc1cccc(F)c1 [7-(3-Fluorobenzyl)-3-(2-fluoroethyl)-[1,2,4]triazolo[4,3-a]pyrazin-8(7H)-one]	620 nM	2900 nM	3000 nM	–	–

SMILES	IC50 (PDE1C)	IC50 (PDE1A)	IC50 (PDE1B)	inhibition at 10 µM (PDE1A)	inhibition at 10 µM (PDE1B; 1 h, % inhibition of the enzyme at a concentration of 10 micro molar of the compound, read-out: PDE1B inhibition (nM or %): % inhib)
O=c1c2nnc([C@H]3CC[C@H](O)CC3)n2ccn1Cc1cccc(F)c1 [7-(3-Fluorobenzyl)-3-((1r,4r)-4-hydroxycyclohexyl)-[1,2,4]triazolo[4,3-a]pyrazin-8(7H)-one]	200 nM	1000 nM	630 nM	–	–
O=c1c2nnc([C@H]3CC[C@@H](O)CC3)n2ccn1Cc1cccc(F)c1 [7-(3-Fluorobenzyl)-3-((1s,4s)-4-hydroxycyclohexyl)-[1,2,4]triazolo[4,3-a]pyrazin-8(7H)-one]	350 nM	1800 nM	1000 nM	–	–
O=c1c2nnc(CC3CCOC3)n2ccn1Cc1cccc(F)c1 (stereo not drawn) [7-(3-Fluorobenzyl)-3-((tetrahydrofuran-3-yl)methyl)-[1,2,4]triazolo[4,3-a]pyrazin-8(7H)-one]	420 nM	1200 nM	1900 nM	–	–
CCCCC(CC)c1nnc2c(=O)n(Cc3cccc(F)c3)ccn12 (stereo not drawn) [7-(3-Fluorobenzyl)-3-(heptan-3-yl)-[1,2,4]triazolo[4,3-a]pyrazin-8(7H)-one]	480 nM	3200 nM	1600 nM	–	–
O=c1c2nnc(C3COC3)n2ccn1Cc1cccc(F)c1 [7-(3-Fluorobenzyl)-3-(oxetan-3-yl)-[1,2,4]triazolo[4,3-a]pyrazin-8(7H)-one]	1700 nM	–	7200 nM	67%	–
O=c1c2nnc(C3CCOCC3)n2ccn1Cc1cccc(F)c1 [7-(3-Fluorobenzyl)-3-(tetrahydro-2H-pyran-4-yl)-[1,2,4]triazolo[4,3-a]pyrazin-8(7H)-one]	140 nM	730 nM	680 nM	–	–
CCCc1nnc2c(=O)n(Cc3cccc(F)c3)ccn12 [7-(3-Fluorobenzyl)-3-propyl-[1,2,4]triazolo[4,3-a]pyrazin-8(7H)-one]	190 nM	1100 nM	1200 nM	–	–
CCCc1nnc2c(=O)n(Cc3cccc(C)c3)ccn12 [7-(3-Methylbenzyl)-3-propyl-[1,2,4]triazolo[4,3-a]pyrazin-8(7H)-one]	170 nM	1500 nM	1600 nM	–	–
CCCc1nnc2c(=O)n(Cc3cccc(F)c3)cc(C)n12 [7-(3-fluorobenzyl)-5-methyl-3-propyl-[1,2,4]triazolo[4,3-a]pyrazin-8(7H)-one]	260 nM	1360 nM	1000 nM	–	–
Cc1ccccc1Cc1cn2c(C3CCOCC3)nnc2c(=O)n1Cc1cccc(F)c1 [7-(3-fluorobenzyl)-6-(2-methylbenzyl)-3-(tetrahydro-2H-pyran-4-yl)-[1,2,4]triazolo[4,3-a]pyrazin-8(7H)-one]	17 nM	91 nM	82 nM	–	–
Cc1cccc(Cc2cn3c(C4CCOCC4)nnc3c(=O)n2Cc2cccc(F)c2)c1 [7-(3-fluorobenzyl)-6-(3-methylbenzyl)-3-(tetrahydro-2H-pyran-4-yl)-[1,2,4]triazolo[4,3-a]pyrazin-8(7H)-one]	2 nM	6 nM	9 nM	–	–
O=c1c2nnc(C3CCOCC3)n2cc(Cc2ccc(F)cc2)n1Cc1cccc(F)c1 [7-(3-fluorobenzyl)-6-(4-fluorobenzyl)-3-(tetrahydro-2H-pyran-4-yl)-[1,2,4]triazolo[4,3-a]pyrazin-8(7H)-one]	10 nM	46 nM	43 nM	–	–
Cc1ccc(Cc2cn3c(C4CCOCC4)nnc3c(=O)n2Cc2cccc(F)c2)cc1 [7-(3-fluorobenzyl)-6-(4-methylbenzyl)-3-(tetrahydro-2H-pyran-4-yl)-[1,2,4]triazolo[4,3-a]pyrazin-8(7H)-one]	1 nM	7 nM	6 nM	–	–
CCCc1nnc2c(=O)n(Cc3cccc(F)c3)c(C)cn12 [7-(3-fluorobenzyl)-6-methyl-3-propyl-[1,2,4]triazolo[4,3-a]pyrazin-8(7H)-one]	46 nM	236 nM	190 nM	–	–
O=c1c2nnc(C3CCOC3)n2ccn1Cc1ccc(Cl)cc1 (stereo not drawn) [7-(4-Chlorobenzyl)-3-(tetrahydrofuran-3-yl)-[1,2,4]triazolo[4,3-a]pyrazin-8(7H)-one]	750 nM	500 nM	840 nM	–	–
CCc1nnc2c(=O)n(Cc3ccc(Cl)cc3)ccn12 [7-(4-Chlorobenzyl)-3-ethyl-[1,2,4]triazolo[4,3-a]pyrazin-8(7H)-one]	2400 nM	1000 nM	800 nM	–	–
